Three compounds from PubChem BioAssay AID1259407 (Chemical Carcinogenesis Research Information System (CCRIS), 2018) can be followed below.

The test system of the data set is CCRIS mutagenicity, Ames/micronucleus/aberration tests. Kind of data set: CCRIS mutagenicity studies. Particulars: Test System: AMES SALMONELLA TYPHIMURIUM
[1] abbreviates: Strain/Indicator: TA98, Metabolic Activation: NONE, Method: STANDARD PLATE.
The mark [2] stands for this setting: Strain/Indicator: TA100, Metabolic Activation: NONE, Method: STANDARD PLATE.
Setting [3] is: Strain/Indicator: TA1537, Metabolic Activation: NONE, Method: STANDARD PLATE.

Activity calls are given as the source filed them. How the calls were made is not given here.

On to `O=c1oc2cc([N+](=O)[O-])ccc2c2ccccc12`, for which the mutagenic call (Strain/Indicator: TA98(1,8-DNP6), Metabolic Activation: NONE, Method: MICROSUSPENSION) was “active; positive”; the mutagenic call (Strain/Indicator: TA98(1,8-DNP6), Metabolic Activation: NONE, Method: PREINCUBATION) was “active; positive”; the mutagenic call (Strain/Indicator: TA98(1,8-DNP6), Metabolic Activation: NONE, Method: STANDARD PLATE) was “active; positive”; the mutagenic call (Strain/Indicator: TA98(NR), Metabolic Activation: NONE, Method: MICROSUSPENSION) is “active; positive”; the mutagenic call (Strain/Indicator: TA98(NR), Metabolic Activation: NONE, Method: PREINCUBATION) is “active; positive”; the mutagenic call (Strain/Indicator: TA98(NR), Metabolic Activation: NONE, Method: STANDARD PLATE) is “active; positive”. The mutagenic call is, setting by setting: (Strain/Indicator: TA98(NR), Metabolic Activation: RAT LIVER S-9 (15%), Method: PREINCUBATION) “active; positive”; (Strain/Indicator: TA98(NR), Metabolic Activation: RAT LIVER S-9, 3-METHYLCHOLANTHRENE, Method: PREINCUBATION) “active; positive”; (Strain/Indicator: TA98(NR), Metabolic Activation: RAT LIVER S-9, BETA-NAPHTHOFLAVONE (15%), Method: PREINCUBATION) “active; positive”; (Strain/Indicator: TA98(NR), Metabolic Activation: RAT LIVER S-9, PCB (15%), Method: PREINCUBATION) “active; positive”; (Strain/Indicator: TA98(NR), Metabolic Activation: RAT LIVER S-9, PHENOBARBITAL (15%), Method: PREINCUBATION) “active; positive”; (Strain/Indicator: TA98(NR), Metabolic Activation: RAT, LIVER, S-9, AROCLOR 1254, Method: STANDARD PLATE) “active; positive”. The mutagenic call was “active; positive” (Strain/Indicator: TA98, Metabolic Activation: NONE, Method: MICROSUSPENSION); “active; positive” (Strain/Indicator: TA98, Metabolic Activation: NONE, Method: PREINCUBATION); “active; positive” under setting [1]; “active; positive” (Strain/Indicator: TA98, Metabolic Activation: RAT, LIVER, S-9, AROCLOR 1254, Method: MICROSUSPENSION); “active; positive” (Strain/Indicator: TA98, Metabolic Activation: RAT, LIVER, S-9, AROCLOR 1254, Method: STANDARD PLATE); “active; positive” (Strain/Indicator: TA100, Metabolic Activation: NONE, Method: MICROSUSPENSION). In addition, the mutagenic call was “active; positive” (Strain/Indicator: TA100, Metabolic Activation: NONE, Method: PREINCUBATION); “active; positive” under setting [2]; “active; positive” (Strain/Indicator: TA100, Metabolic Activation: RAT LIVER S-9, 3-METHYLCHOLANTHRENE (15%), Method: PREINCUBATION); “active; positive” (Strain/Indicator: TA100, Metabolic Activation: RAT, LIVER, S-9, AROCLOR 1254, Method: MICROSUSPENSION); “active; positive” (Strain/Indicator: TA100, Metabolic Activation: RAT, LIVER, S-9, AROCLOR 1254, Method: STANDARD PLATE); “active; positive” (Strain/Indicator: TA1535, Metabolic Activation: NONE, Method: STANDARD PLATE). In addition, the mutagenic call was “active; positive” (Strain/Indicator: TA1535, Metabolic Activation: RAT, LIVER, S-9, AROCLOR 1254, Method: STANDARD PLATE); “active; positive” under setting [3]; “active; positive” (Strain/Indicator: TA1537, Metabolic Activation: RAT, LIVER, S-9, AROCLOR 1254, Method: STANDARD PLATE); “active; positive” (Strain/Indicator: TA1538, Metabolic Activation: NONE, Method: STANDARD PLATE); “active; positive” (Strain/Indicator: TA1538, Metabolic Activation: RAT, LIVER, S-9, AROCLOR 1254, Method: STANDARD PLATE); “inactive; negative” (Strain/Indicator: TA7001, Metabolic Activation: NONE, Method: PREINCUBATION). Besides, the mutagenic call reads like this: (Strain/Indicator: TA7001, Metabolic Activation: RAT LIVER S-9, 3-METHYLCHOLANTHRENE (15%), Method: PREINCUBATION) “inactive; negative”; (Strain/Indicator: TA7002, Metabolic Activation: NONE, Method: PREINCUBATION) “active; positive”; (Strain/Indicator: TA7002, Metabolic Activation: RAT LIVER S-9, 3-METHYLCHOLANTHRENE, Method: PREINCUBATION) “active; positive”; (Strain/Indicator: TA7003, Metabolic Activation: NONE, Method: PREINCUBATION) “inactive; negative”; (Strain/Indicator: TA7003, Metabolic Activation: RAT LIVER S-9, 3-METHYLCHOLANTHRENE, Method: PREINCUBATION) “inactive; negative”; (Strain/Indicator: TA7004, Metabolic Activation: NONE, Method: PREINCUBATION) “active; positive”. Moreover, the mutagenic call by setting is: (Strain/Indicator: TA7004, Metabolic Activation: RAT LIVER S-9, 3-METHYLCHOLANTHRENE, Method: PREINCUBATION) “active; positive”; (Strain/Indicator: TA7005, Metabolic Activation: NONE, Method: PREINCUBATION) “active; positive”; (Strain/Indicator: TA7005, Metabolic Activation: RAT LIVER S-9, 3-METHYLCHOLANTHRENE, Method: PREINCUBATION) “active; positive”; (Strain/Indicator: TA7006, Metabolic Activation: NONE, Method: PREINCUBATION) “active; positive”; (Strain/Indicator: TA7006, Metabolic Activation: RAT LIVER S-9, 3-METHYLCHOLANTHRENE, Method: PREINCUBATION) “active; positive”.
Consider `CN(C)CCNC(=O)c1cccn2c(=O)c3ccccc3nc12`, for which the mutagenic call under setting [3] was “active; positive”.
`CC1C(C)(C)C2=C(C(=O)CCC2)C1(C)C` (stereo not given): the mutagenic call runs as follows: (Strain/Indicator: TA97, Metabolic Activation: NONE, Method: STANDARD PLATE) “inactive; negative”; (Strain/Indicator: TA97, Metabolic Activation: RAT LIVER S-9, AROCLOR 1254, Method: STANDARD PLATE) “inactive; negative”; under setting [1], “inactive; negative”; (Strain/Indicator: TA98, Metabolic Activation: RAT LIVER S-9, AROCLOR 1254, Method: STANDARD PLATE) “inactive; negative”; under setting [2], “inactive; negative”; (Strain/Indicator: TA100, Metabolic Activation: RAT LIVER S-9, AROCLOR 1254, Method: STANDARD PLATE) “inactive; negative”. Besides, the mutagenic call runs as follows: (Strain/Indicator: TA102, Metabolic Activation: NONE, Method: STANDARD PLATE) “inactive; negative”; (Strain/Indicator: TA102, Metabolic Activation: RAT LIVER S-9, AROCLOR 1254, Method: STANDARD PLATE) “inactive; negative”.
